Test results from ChEMBL document CHEMBL4251620, “Biological evaluation of indolizine-chalcone hybrids as new anticancer agents” (Eur J Med Chem, 2018).
pIC50: −log10 of the molar value. The source made the active and inactive calls. No cut-off for these calls is given here.

system: U-937; assay: Induction of apoptosis in human U937 cells assessed as necrotic cells at 10 uM after 48 hrs by muse Annexin V/dead cell reagent staining-based flow cytometric analysis (reference value: 0.06%); type: functional; settings: not given

SMILES | Activity [%]
COc1cc(/C=C/C(=O)c2cc3cccn3c(C(=O)c3ccccc3)c2C)cc(OC)c1 | 0
Cc1c(C(=O)/C=C/c2cccc(Cl)c2)cc2cccn2c1C(=O)c1ccccc1 | 0.24
Cc1c(C(=O)/C=C/c2ccc([N+](=O)[O-])cc2)cc2cccn2c1C(=O)c1ccccc1 | 1.31
Cc1c(C(=O)/C=C/c2ccncc2)cc2cccn2c1C(=O)c1ccccc1 | 0
Cc1c(C(=O)/C=C/c2ccc(Br)cc2)cc2cccn2c1C(=O)c1ccccc1 | 0.59

system: U-937; assay: Induction of apoptosis in human U937 cells at 10 uM after 48 hrs by muse Annexin V/dead cell reagent staining-based flow cytometric analysis (reference value: 2.95%); type: functional; settings: not given

SMILES | Activity [%]
COc1cccc2c1C(=O)c1c(O)c3c(c(O)c1C2=O)C[C@@](O)(C(=O)CO)C[C@@H]3O[C@H]1C[C@H](N)[C@H](O)[C@H](C)O1 [DOXORUBICIN] | 74.66
COc1cc(/C=C/C(=O)c2cc3cccn3c(C(=O)c3ccccc3)c2C)cc(OC)c1 | 51.26

system: Raji; assay: Induction of apoptosis in human Raji cells at 10 uM after 48 hrs by muse Annexin V/dead cell reagent staining-based flow cytometric analysis (reference value: 9.58%); type: functional; settings: not given

SMILES | Activity [%]
COc1cccc2c1C(=O)c1c(O)c3c(c(O)c1C2=O)C[C@@](O)(C(=O)CO)C[C@@H]3O[C@H]1C[C@H](N)[C@H](O)[C@H](C)O1 [DOXORUBICIN] | 95.35
COc1cc(/C=C/C(=O)c2cc3cccn3c(C(=O)c3ccccc3)c2C)cc(OC)c1 | 33.78

system: U-937; assay: Induction of apoptosis in human U937 cells assessed as viable cells at 3 uM after 48 hrs by muse Annexin V/dead cell reagent staining-based flow cytometric analysis (reference value: 97.07%); type: functional; settings: U-937, 48 h, read-out: Activity

SMILES | viability at 3 µM [%]
COc1cc(/C=C/C(=O)c2cc3cccn3c(C(=O)c3ccccc3)c2C)cc(OC)c1 | 14.2
Cc1c(C(=O)/C=C/c2cccc(Cl)c2)cc2cccn2c1C(=O)c1ccccc1 | 15.8
Cc1c(C(=O)/C=C/c2ccc([N+](=O)[O-])cc2)cc2cccn2c1C(=O)c1ccccc1 | 26.4
Cc1c(C(=O)/C=C/c2ccncc2)cc2cccn2c1C(=O)c1ccccc1 | 21.4
Cc1c(C(=O)/C=C/c2ccc(Br)cc2)cc2cccn2c1C(=O)c1ccccc1 | 25.7

system: JeKo-1; assay: Cytotoxicity activity against human JeKo1 cells assessed as reduction in cell viability after 48 hrs by CCK-8 assay; type: functional, cell-based; settings: JeKo-1, 48 h

SMILES | pIC50
COc1cccc2c1C(=O)c1c(O)c3c(c(O)c1C2=O)C[C@@](O)(C(=O)CO)C[C@@H]3O[C@H]1C[C@H](N)[C@H](O)[C@H](C)O1 [DOXORUBICIN] | 6.74
COc1cc(/C=C/C(=O)c2cc3cccn3c(C(=O)c3ccccc3)c2C)cc(OC)c1 | 5.89

system: U-937; assay: Induction of apoptosis in human U937 cells assessed as viable cells at 10 uM after 48 hrs by muse Annexin V/dead cell reagent staining-based flow cytometric analysis (reference value: 97.07%); type: functional; settings: U-937, 48 h, read-out: Activity

SMILES | viability at 10 µM [%]
COc1cc(/C=C/C(=O)c2cc3cccn3c(C(=O)c3ccccc3)c2C)cc(OC)c1 | 3.36
Cc1c(C(=O)/C=C/c2cccc(Cl)c2)cc2cccn2c1C(=O)c1ccccc1 | 7.84
Cc1c(C(=O)/C=C/c2ccc([N+](=O)[O-])cc2)cc2cccn2c1C(=O)c1ccccc1 | 13.7
Cc1c(C(=O)/C=C/c2ccncc2)cc2cccn2c1C(=O)c1ccccc1 | 10.7
Cc1c(C(=O)/C=C/c2ccc(Br)cc2)cc2cccn2c1C(=O)c1ccccc1 | 8.31

system: Raji; assay: Cytotoxicity against human Raji cells assessed as reduction in cell viability after 48 hrs by CCK-8 assay; type: functional, cell-based; settings: not given

SMILES | pIC50
COc1cccc2c1C(=O)c1c(O)c3c(c(O)c1C2=O)C[C@@](O)(C(=O)CO)C[C@@H]3O[C@H]1C[C@H](N)[C@H](O)[C@H](C)O1 [DOXORUBICIN] | 6.77
COc1cc(/C=C/C(=O)c2cc3cccn3c(C(=O)c3ccccc3)c2C)cc(OC)c1 | 5.70

system: U-937; assay: Induction of apoptosis in human U937 cells assessed as early apoptotic cells at 3 uM after 48 hrs by muse Annexin V/dead cell reagent staining-based flow cytometric analysis (reference value: 1.87%); type: functional; settings: not given

SMILES | Activity [%]
COc1cc(/C=C/C(=O)c2cc3cccn3c(C(=O)c3ccccc3)c2C)cc(OC)c1 | 39.59
Cc1c(C(=O)/C=C/c2cccc(Cl)c2)cc2cccn2c1C(=O)c1ccccc1 | 29.36
Cc1c(C(=O)/C=C/c2ccc([N+](=O)[O-])cc2)cc2cccn2c1C(=O)c1ccccc1 | 24.87
Cc1c(C(=O)/C=C/c2ccncc2)cc2cccn2c1C(=O)c1ccccc1 | 30.03
Cc1c(C(=O)/C=C/c2ccc(Br)cc2)cc2cccn2c1C(=O)c1ccccc1 | 31.36

system: U-937; assay: Cytotoxicity activity against human U937 cells assessed as reduction in cell viability after 48 hrs by CCK-8 assay; type: functional, cell-based; settings: U-937, 48 h

SMILES | pIC50
COc1cc(/C=C/C(=O)c2cc3cccn3c(C(=O)c3ccccc3)c2C)cc(OC)c1OC | 5.23
COc1cccc2c1C(=O)c1c(O)c3c(c(O)c1C2=O)C[C@@](O)(C(=O)CO)C[C@@H]3O[C@H]1C[C@H](N)[C@H](O)[C@H](C)O1 [DOXORUBICIN] | 6.55
COc1cc(/C=C/C(=O)c2cc3cccn3c(C(=O)c3ccccc3)c2C)cc(OC)c1 | 5.95
COc1cc(/C=C2\CCc3c(cc4cccn4c3C(=O)c3ccccc3)C2=O)cc(OC)c1 | 5.02
Cc1c(C(=O)/C=C/c2cccc(Cl)c2)cc2cccn2c1C(=O)c1ccccc1 | 5.89
Cc1c(C(=O)/C=C/c2ccc([N+](=O)[O-])cc2)cc2cccn2c1C(=O)c1ccccc1 | 5.86
Cc1c(C(=O)/C=C/c2ccncc2)cc2cccn2c1C(=O)c1ccccc1 | 5.86
Cc1c(C(=O)/C=C/c2ccc(Br)cc2)cc2cccn2c1C(=O)c1ccccc1 | 5.86
COc1cc(/C=C/C(=O)c2cc3cccn3c(C(=O)c3ccco3)c2C)cc(OC)c1 | 5.12
COc1ccc(C(=O)c2c(C)c(C(=O)/C=C/c3cc(OC)cc(OC)c3)cc3cccn23)cc1 | 5.18

system: U-937; assay: Induction of apoptosis in human U937 cells assessed as late apoptotic cells at 10 uM after 48 hrs by muse Annexin V/dead cell reagent staining-based flow cytometric analysis (reference value: 1%); type: functional; settings: not given

SMILES | Activity [%]
COc1cc(/C=C/C(=O)c2cc3cccn3c(C(=O)c3ccccc3)c2C)cc(OC)c1 | 88.41
Cc1c(C(=O)/C=C/c2cccc(Cl)c2)cc2cccn2c1C(=O)c1ccccc1 | 85.99
Cc1c(C(=O)/C=C/c2ccc([N+](=O)[O-])cc2)cc2cccn2c1C(=O)c1ccccc1 | 68.63
Cc1c(C(=O)/C=C/c2ccncc2)cc2cccn2c1C(=O)c1ccccc1 | 83.05
Cc1c(C(=O)/C=C/c2ccc(Br)cc2)cc2cccn2c1C(=O)c1ccccc1 | 76.56

system: U-937; assay: Induction of apoptosis in human U937 cells assessed as early apoptotic cells at 10 uM after 48 hrs by muse Annexin V/dead cell reagent staining-based flow cytometric analysis (reference value: 1.87%); type: functional; settings: not given

SMILES | Activity [%]
COc1cc(/C=C/C(=O)c2cc3cccn3c(C(=O)c3ccccc3)c2C)cc(OC)c1 | 8.22
Cc1c(C(=O)/C=C/c2cccc(Cl)c2)cc2cccn2c1C(=O)c1ccccc1 | 5.94
Cc1c(C(=O)/C=C/c2ccc([N+](=O)[O-])cc2)cc2cccn2c1C(=O)c1ccccc1 | 16.34
Cc1c(C(=O)/C=C/c2ccncc2)cc2cccn2c1C(=O)c1ccccc1 | 6.21
Cc1c(C(=O)/C=C/c2ccc(Br)cc2)cc2cccn2c1C(=O)c1ccccc1 | 14.54

system: U-937; assay: Induction of apoptosis in human U937 cells assessed as necrotic cells at 3 uM after 48 hrs by muse Annexin V/dead cell reagent staining-based flow cytometric analysis (reference value: 0.06%); type: functional; settings: not given

SMILES | Activity [%]
COc1cc(/C=C/C(=O)c2cc3cccn3c(C(=O)c3ccccc3)c2C)cc(OC)c1 | 0.62
Cc1c(C(=O)/C=C/c2cccc(Cl)c2)cc2cccn2c1C(=O)c1ccccc1 | 0.55
Cc1c(C(=O)/C=C/c2ccc([N+](=O)[O-])cc2)cc2cccn2c1C(=O)c1ccccc1 | 1.57
Cc1c(C(=O)/C=C/c2ccncc2)cc2cccn2c1C(=O)c1ccccc1 | 0.93
Cc1c(C(=O)/C=C/c2ccc(Br)cc2)cc2cccn2c1C(=O)c1ccccc1 | 0.77

system: U-937; assay: Cytotoxicity activity against human U937 cells assessed as cell viability at 1 uM after 48 hrs by CCK-8 assay; type: functional; settings: U-937, 48 h, read-out: Activity

SMILES | viability at 1 µM [%]
COc1cc(/C=C/C(=O)c2cc3cccn3c(C(=O)c3ccccc3)c2C)cc(OC)c1 | < 80
Cc1ccc(/C=C/C(=O)c2cc3cccn3c(C(=O)c3ccccc3)c2C)cc1 | > 80
COc1ccc(/C=C/C(=O)c2cc3cccn3c(C(=O)c3ccccc3)c2C)cc1OC | > 80
Cc1c(C(=O)/C=C/c2ccc(Cl)cc2)cc2cccn2c1C(=O)c1ccccc1 | > 80
Cc1c(C(=O)/C=C/c2ccc(Br)s2)cc2cccn2c1C(=O)c1ccccc1 | > 80
Cc1c(C(=O)/C=C/c2cccc(Cl)c2)cc2cccn2c1C(=O)c1ccccc1 | < 80
Cc1c(C(=O)/C=C/c2ccc3c(c2)OCO3)cc2cccn2c1C(=O)c1ccccc1 | > 80
Cc1c(C(=O)/C=C/c2ccc3ccccc3c2)cc2cccn2c1C(=O)c1ccccc1 | > 80
Cc1c(C(=O)/C=C/c2ccc([N+](=O)[O-])cc2)cc2cccn2c1C(=O)c1ccccc1 | < 80
Cc1c(C(=O)/C=C/c2ccc(Br)o2)cc2cccn2c1C(=O)c1ccccc1 | > 80
Cc1c(C(=O)/C=C/c2ccc(F)cc2)cc2cccn2c1C(=O)c1ccccc1 | > 80
Cc1c(C(=O)/C=C/c2ccncc2)cc2cccn2c1C(=O)c1ccccc1 | < 80
Cc1c(C(=O)/C=C/c2cccc(F)c2)cc2cccn2c1C(=O)c1ccccc1 | > 80
Cc1c(C(=O)/C=C/c2ccc(Br)cc2)cc2cccn2c1C(=O)c1ccccc1 | < 80
COc1cccc(/C=C/C(=O)c2cc3cccn3c(C(=O)c3ccccc3)c2C)c1 | > 80
COc1ccc(/C=C/C(=O)c2cc3cccn3c(C(=O)c3ccccc3)c2C)cc1 | > 80
Cc1c(C(=O)/C=C/c2ccccc2)cc2cccn2c1C(=O)c1ccccc1 | > 80
COc1ccccc1/C=C/C(=O)c1cc2cccn2c(C(=O)c2ccccc2)c1C | > 80

system: U-937; assay: Induction of apoptosis in human U937 cells assessed as increase in caspase-3/7 activity at 3 uM after 6 hrs; type: functional, cell-based; settings: not given

SMILES | Activity
COc1cc(/C=C/C(=O)c2cc3cccn3c(C(=O)c3ccccc3)c2C)cc(OC)c1 | Active
Cc1c(C(=O)/C=C/c2cccc(Cl)c2)cc2cccn2c1C(=O)c1ccccc1 | Active
Cc1c(C(=O)/C=C/c2ccc([N+](=O)[O-])cc2)cc2cccn2c1C(=O)c1ccccc1 | Active
Cc1c(C(=O)/C=C/c2ccncc2)cc2cccn2c1C(=O)c1ccccc1 | Active
Cc1c(C(=O)/C=C/c2ccc(Br)cc2)cc2cccn2c1C(=O)c1ccccc1 | Active

system: JeKo-1; assay: Induction of apoptosis in human JeKo1 cells at 10 uM after 48 hrs by muse Annexin V/dead cell reagent staining-based flow cytometric analysis (reference value: 5.21%); type: functional; settings: not given

SMILES | Activity [%]
COc1cccc2c1C(=O)c1c(O)c3c(c(O)c1C2=O)C[C@@](O)(C(=O)CO)C[C@@H]3O[C@H]1C[C@H](N)[C@H](O)[C@H](C)O1 [DOXORUBICIN] | 87.92
COc1cc(/C=C/C(=O)c2cc3cccn3c(C(=O)c3ccccc3)c2C)cc(OC)c1 | 46.27

system: U-937; assay: Cytotoxicity activity against human U937 cells assessed as reduction in cell viability at 1 uM after 48 hrs by CCK-8 assay; type: functional, cell-based; settings: not given

SMILES | Activity
Cc1c(C(=O)/C=C/c2ccc(Cl)cc2)cc2cccn2c1C(=O)c1ccccc1 | Active
Cc1c(C(=O)/C=C/c2cccc(Cl)c2)cc2cccn2c1C(=O)c1ccccc1 | Active
Cc1c(C(=O)/C=C/c2ccc(F)cc2)cc2cccn2c1C(=O)c1ccccc1 | Active
Cc1c(C(=O)/C=C/c2cccc(F)c2)cc2cccn2c1C(=O)c1ccccc1 | Active

system: U-937; assay: Induction of apoptosis in human U937 cells assessed as late apoptotic cells at 3 uM after 48 hrs by muse Annexin V/dead cell reagent staining-based flow cytometric analysis (reference value: 1%); type: functional; settings: not given

SMILES | Activity [%]
COc1cc(/C=C/C(=O)c2cc3cccn3c(C(=O)c3ccccc3)c2C)cc(OC)c1 | 45.57
Cc1c(C(=O)/C=C/c2cccc(Cl)c2)cc2cccn2c1C(=O)c1ccccc1 | 54.29
Cc1c(C(=O)/C=C/c2ccc([N+](=O)[O-])cc2)cc2cccn2c1C(=O)c1ccccc1 | 47.12
Cc1c(C(=O)/C=C/c2ccncc2)cc2cccn2c1C(=O)c1ccccc1 | 47.68
Cc1c(C(=O)/C=C/c2ccc(Br)cc2)cc2cccn2c1C(=O)c1ccccc1 | 42.16
